For assay [1], the system named is acid secretion induced by pentagastrin. Briefly: In vivo gastric anti-secretory activity in the anaesthetised rat, pentagastrin stimulation. As for the experimental part: Gastric secretion was stimulated by pentagastrin and the method of Lai [Gut 5, (1964), 327-341] was used with slight modifications [Makovec et al, J.Med.Chem. 35 (1992), 28-38].
Pentagastrin dissolved in physiological saline was perfused for 120 minutes at a rate of 30 mcg/kg/h. After 60 minutes of perfusion (basal stimulation), the product to be tested was administered intravenously (I.V.) in bolus form, perfusion of the stimulant continuing for the remaining 60 minutes. The activity of the product was evaluated as the percentage reduction in acid secreted after the administration of the product with respect to the basal acidity measured in the first 60 minutes, during which time only pentagastrin was present.
The antagonists tested were administered at different doses in such a way as to enable the ID50 to be calculated, that is, the dose (in mg/kg I.V.) capable of inhibiting the effect of pentagastrin by 50%.

Assay [2] deals with rats. Briefly: Anxiolytic activity, elevated plus-maze in rats. It is filed as in vivo, rat. As for the experimental part: It has in fact recently been postulated that the central CCK-B receptor plays an important role in anxiety. This accords with studies also carried out in man which have shown that the central CCK-B mechanisms have an important function in the mediation of panic attacks [Bradwejn, J.et al; J.Psychopharmacology 6 (1992), 345]. In order to confirm this hypothesis, the anxiolytic activities of several of the most powerful CCK-B antagonists of the invention were evaluated by the method of the "elevated plus-maze" in rats, carried out in accordance with Pellow et al. [J. of Neurosc. Meth. 14(1985), 149-167]. A labyrinth was used in which the length of the cross arm was about 45 cm placed at a height from the ground of 70 cm. On this experimental model, a compound having anxiolytic activity produces a percentage increase in the stay time in the open arms and a percentage increase in the number of entries into the open arms.
The results obtained are given in Table 5 below where the activities obtained with different doses of the compound 4 administered intraperitoneally (IP) are given in comparison with a group of animals treated with a physiological saline in the same way.

In the case of `Cc1cc(C)c(NC(=O)CC(CC(=O)O)c2cccc3ccccc23)c(C(=O)N2CCC3(CCCC3)CC2)c1` (stereo not drawn) [Compound 4], in assay [1] (ID50 comparison, rat I.V.), the “times more powerful than CR 2194” value is listed as 10-50 times and the “times more powerful than cimetidine” value is reported as 2-10 times. Also, the ED50 in assay [1] (iv, I.V. bolus, rat, pentagastrin perfusion, read-out: Activity (ID50)) worked out at 0.2 mg/kg. In assay [2] (0.03 mg/kg I.P., rat), the “% Effect VS controls (time)” value stood at 10.4%, the “% Effect Vs controls (entries)” value is 19.3%, the “Entries to open arm/total entries (%)” value is listed as 36.4% and the “Time in open arm/total time (%)” value was found to be 21.1%. In assay [2] (0.3 mg/kg I.P., rat), the “% Effect VS controls (time)” value is listed as 47.9%, the “% Effect Vs controls (entries)” value was 39.3%, the “Entries to open arm/total entries (%)” value is recorded as 42.5% and the “Time in open arm/total time (%)” value is recorded as 28.2%. In assay [2] (0.3 mg/kg I.P., significant vs saline controls), the “percentage stay time in the open arms compared with controls” value is listed as “increases the percentage stay time in the open arms”. In assay [2] (3.0 mg/kg I.P., rat), the “% Effect VS controls (time)” value was 4.2%, the “% Effect Vs controls (entries)” value stood at 11.5%, the “Entries to open arm/total entries (%)” value worked out at 34.0% and the “Time in open arm/total time (%)” value came out at 19.9%. In addition, the “percentage number of entries into the open arm compared with the controls” value in assay [2] (dose range 0.03-3 mg/kg I.P.) is reported as “increases the percentage number of entries into the open arm”. Also, in assay [2] (plus maze, rat, I.P.), the anxiolytic effect result was “displays an anxiolytic effect”.
